Experimental data: paper PMC4594013 (Frontiers in Pharmacology, 2015)
“Also recorded” adds a separate entry of the source. Counter-ions that a name gives are not always drawn.

Assays:
OAT2-tv1 [1] = target: T1, OAT2-tv1 (Homo sapiens, UniProt Q9Y694); set-up: The open reading frame of the human ortholog of OAT2 transcript variant 1 (OAT2-tv1) containing 546 amino acids was amplified from human kidney cDNA; expressed in transfected cells; host or cells: CHO Flp-In (A1); CHO, HEK and MDCK Flp-In (A2); details: ref Babelova et al., 2015; cited from earlier work
T1 sequence (Q9Y694 1-546 isoform Q9Y694-2): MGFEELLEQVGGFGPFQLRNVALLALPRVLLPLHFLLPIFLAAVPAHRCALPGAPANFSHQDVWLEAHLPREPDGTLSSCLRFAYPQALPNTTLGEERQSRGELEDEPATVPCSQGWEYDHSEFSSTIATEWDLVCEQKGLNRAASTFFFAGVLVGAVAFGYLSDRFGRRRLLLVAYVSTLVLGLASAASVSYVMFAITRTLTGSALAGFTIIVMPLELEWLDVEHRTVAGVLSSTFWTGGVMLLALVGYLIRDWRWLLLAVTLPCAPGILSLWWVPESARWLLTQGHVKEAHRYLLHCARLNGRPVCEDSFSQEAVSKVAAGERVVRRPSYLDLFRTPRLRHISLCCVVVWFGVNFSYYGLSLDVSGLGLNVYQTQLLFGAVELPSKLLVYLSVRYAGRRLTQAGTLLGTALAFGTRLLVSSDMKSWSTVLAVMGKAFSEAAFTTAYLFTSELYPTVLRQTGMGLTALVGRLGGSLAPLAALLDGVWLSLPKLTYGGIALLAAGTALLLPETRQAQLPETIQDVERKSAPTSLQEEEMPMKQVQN

OAT2-tv1 [2] = target: T1, OAT2-tv1; assay: Inhibition of [3H]penciclovir uptake into CHO-OAT2-tv1 cells; format: cell-based; details: CHO-OAT2-tv1 cells; test compound 1 mM; [3H]penciclovir ∼30 nM; 5 min
Procedure: (§1) All experiments examining cellular radiolabeled compound uptake were conducted using cells grown to confluence in 24-well flat bottom plates. The transport solution consisted of WB (room temperature) containing radiolabeled compound and the uptake period for all experiments was at an initial rate time point of 5 min. [^3H]Penciclovir served as the probe OAT2 substrate. We also examined the uptake of [^3H]para-aminohippurate, [^3H]estrone-3-sulfate, [^14C]glutarate, [^14C]succinate, [^3H]paclitaxel, and [^3H]dehydroepiandrosterone sulfate by OAT2 since published studies indicate that they are substrates of the transport protein ([Sun et al., 2001]; [Kobayashi et al., 2005a]). […] For all cellular uptake experiments, the medium was aspirated and the cells were rinsed once with WB (0.3 ml). Following the uptake period, cells were washed three times with ice-cold WB (0.5 ml each wash). After aspirating the final wash the cells were lysed in 0.5 N NaOH/1% SDS (0.4 ml) for ∼30 min on an orbital shaker. 1 N HCl (0.2 ml) was then added to neutralize the NaOH, and the cell lysates (0.5 ml) were transferred to scintillation vials containing liquid scintillation cocktail (CytoScint ES, MP Biomedicals). Cellular radioactivity content was determined with a Beckman LS6500 liquid scintillation counter. Protein content was determined using the bicinchoninic acid method. See the Figure and Table Legends for additional details describing the experimental conditions used.
The concentration of each Kreb’s cycle intermediate was 1 mM. Uptake was conducted for 5 min.

OAT2-tv1 [3] = target: T1, OAT2-tv1; assay: Cellular uptake of radiolabeled compounds by CHO, HEK or MDCK cells stably expressing OAT2-tv1
Procedure: as §1
FIGURE 2 Cellular accumulation of [^3H]penciclovir (A), [^3H]para-aminohippurate (B), [^3H]estrone-3-sulfate (C), or [^14C]glutarate (D) by parental CHO, HEK, or MDCK cells, or CHO, HEK, or MDCK cells stably expressing either OAT2-tv1 or OAT2-tv2. The concentration of [^3H]penciclovir in the transport solution was 0.1 μM for CHO and MDCK cell experiments, and 0.5 μM for HEK cell experiments. The concentrations of [^3H]para-aminohippurate, [^3H]estrone-3-sulfate and [^14C]glutarate were 8 nM, 10 nM, and 18 μM, respectively. Uptake was conducted for 5 min at room temperature.
FIGURE 4 Cellular accumulation of [^14C]succinate (18.5 μM) by CHO parental cells, CHO-OAT2-tv1 cells or CHO cells stably expressing the Na-dicarboxylate cotransporter 3 (NaDC3). Uptake was conducted for 5 min. Values are the mean ± standard error of the mean of four experiments for CHO parental and CHO-OAT2-tv1 cells. A single uptake experiment was performed with CHO-NaDC3 cells.

[4] = tested on: OAT2 (sequence not given); details: variant unclear; ref Sun et al., 2001; cited from earlier work
CHO parental cells = assay: Cellular accumulation of radiolabeled compounds in CHO parental cells; format: cell-based, Chinese hamster; details: [3H]dehydroepiandrosterone sulfate 12 nM, [3H]paclitaxel 22 nM, n = 3
[5] = target: Na-dicarboxylate cotransporter 3 (NaDC3) (Homo sapiens, UniProt Q8WWT9); details: CHO-NaDC3 cells; [14C]succinate 18.5 μM; 5 min; single experiment (n = 1)
Chain of Na-dicarboxylate cotransporter 3 (NaDC3) (Q8WWT9 whole entry, species assumed): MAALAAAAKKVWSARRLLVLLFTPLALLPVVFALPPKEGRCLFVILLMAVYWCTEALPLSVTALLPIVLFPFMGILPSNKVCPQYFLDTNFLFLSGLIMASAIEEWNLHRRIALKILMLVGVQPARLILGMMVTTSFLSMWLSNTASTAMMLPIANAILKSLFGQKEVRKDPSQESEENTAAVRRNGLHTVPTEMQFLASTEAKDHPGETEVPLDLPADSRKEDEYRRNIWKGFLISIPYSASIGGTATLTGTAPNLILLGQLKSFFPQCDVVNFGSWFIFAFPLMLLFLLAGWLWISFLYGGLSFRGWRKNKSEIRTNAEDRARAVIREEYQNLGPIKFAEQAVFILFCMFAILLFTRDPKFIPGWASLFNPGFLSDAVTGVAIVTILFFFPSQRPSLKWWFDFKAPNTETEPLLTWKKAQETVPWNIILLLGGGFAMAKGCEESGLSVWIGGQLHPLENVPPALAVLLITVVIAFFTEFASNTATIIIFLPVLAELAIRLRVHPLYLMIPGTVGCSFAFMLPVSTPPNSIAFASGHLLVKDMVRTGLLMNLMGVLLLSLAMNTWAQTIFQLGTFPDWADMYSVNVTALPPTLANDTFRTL
Procedure: as §1, with “See the Figure and Table Legends for additional details describing the experimental conditions used.” left out

OAT2-tv3 = tested on: OAT2-tv3; set-up: method as in Sato et al., 2010; details: OAT2-tv3 in HEK cells pre-loaded with succinate (100 mM); ref Sato et al., 2010; cited from earlier work
OAT2-tv2 = target: T2, OAT2-tv2 (Homo sapiens, UniProt Q9Y694); set-up: method as in Kobayashi et al., 2005a; details: OAT2-tv2 in Xenopus oocytes pre-loaded with 5 mM compound; ref Kobayashi et al., 2005a; cited from earlier work
T2 sequence (Q9Y694 1-548): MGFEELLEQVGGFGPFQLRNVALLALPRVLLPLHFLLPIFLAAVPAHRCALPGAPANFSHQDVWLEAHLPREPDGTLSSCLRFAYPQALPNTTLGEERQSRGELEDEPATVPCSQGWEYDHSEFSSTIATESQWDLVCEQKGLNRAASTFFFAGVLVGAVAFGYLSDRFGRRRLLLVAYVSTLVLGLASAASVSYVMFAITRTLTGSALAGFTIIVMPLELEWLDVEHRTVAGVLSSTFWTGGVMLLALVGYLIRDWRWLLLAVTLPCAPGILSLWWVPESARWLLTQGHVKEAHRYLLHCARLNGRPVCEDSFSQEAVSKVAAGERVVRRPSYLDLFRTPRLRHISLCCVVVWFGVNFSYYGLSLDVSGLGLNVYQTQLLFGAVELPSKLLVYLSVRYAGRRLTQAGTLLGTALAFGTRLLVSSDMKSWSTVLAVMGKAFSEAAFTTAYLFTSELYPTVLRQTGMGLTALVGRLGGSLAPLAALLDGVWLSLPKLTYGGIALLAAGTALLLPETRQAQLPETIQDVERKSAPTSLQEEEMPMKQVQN

O=C(O)/C=C(/CC(=O)O)C(=O)O [cis-aconitate]
cis-inhibition of OAT2-tv1-mediated cGMP transport (OAT2-tv1 [1]): did not observe cis-inhibition
cis-inhibition of penciclovir uptake (OAT2-tv1 [2]): none of the Kreb’s cycle intermediates tested, including succinate and fumarate, cis-inhibited penciclovir uptake

O=C(O)CC(O)(CC(=O)O)C(=O)O [citrate]
cis-inhibition of OAT2-tv1-mediated cGMP transport (OAT2-tv1 [1]): did not observe cis-inhibition
cis-inhibition of penciclovir uptake (OAT2-tv1 [2]): none of the Kreb’s cycle intermediates tested, including succinate and fumarate, cis-inhibited penciclovir uptake

C[C@]12CC[C@H](OS(=O)(=O)O)CC1=CC[C@@H]1[C@@H]2CC[C@]2(C)C(=O)CC[C@@H]12 [dehydroepiandrosterone sulfate]
cellular accumulation (OAT2-tv1 [3]; CHO-OAT2-tv1 cells, [3H]dehydroepiandrosterone sulfate 12 nM, [3H]paclitaxel 22 nM, n = 3): 11.0 ± 0.54 fmoles ⋅ mg protein^-1 ⋅ min^-1
mediated transport by OAT2-tv1 (OAT2-tv1 [3]; expressed in CHO cells): unable to show mediated transport
transport by OAT2 [4]: did not observe transport
cellular accumulation (CHO parental cells): 10.3 ± 1.1 fmoles ⋅ mg protein^-1 ⋅ min^-1

O=C(O)CCC(=O)O [succinate]
uptake of [14C]succinate compared to parental CHO cells (OAT2-tv1 [3]; CHO-OAT2-tv1 cells, [14C]succinate 18.5 μM, 5 min): not different than uptake into the parental CHO cells; also recorded: no significant difference; also recorded: not transported
uptake of [14C]succinate, fold higher than control [5]: ~30 fold
cis-inhibition of penciclovir uptake (OAT2-tv1 [2]): none of the Kreb’s cycle intermediates tested, including succinate and fumarate, cis-inhibited penciclovir uptake
stimulation of urate uptake by pre-loading (OAT2-tv3): failed to observe stimulation
stimulation of estrone-3-sulfate uptake by pre-loading (OAT2-tv2): 2.1 fold
